Measured values as given in patent publication US10131652B2, “Pyrimidinyloxy benzene derivatives as herbicides” (E. I. DU PONT DE NEMOURS AND COMPANY, priority 2014, dated 2018).

How the values were obtained:
Format in all cases: in vivo
[1] = test system: Italian ryegrass (Lolium multiflorum); assay: Test B pre-/postemergence plant response
Procedure, shortened: (§1)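 Steps: plant seeds in loam soil–sand mix; spray soil preemergence, and in parallel spray 2–10 cm one- to two-leaf plants postemergence; hold ~10 days in greenhouse; visually rate injury against untreated controls (0 = no effect, 100 = complete control).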

kochia (Kochia scoparia) [2] = assay: Test B pre-/postemergence plant response
Procedure, shortened: as §1

[3] = test system: ragweed (common ragweed, Ambrosia elatior); assay: Test B pre-/postemergence plant response
Procedure, shortened: as §1

kochia (Kochia scoparia) [4] = assay: Test D postemergence plant response; settings: for Plant response rating (scale 0 to 100), Kochia: 16 g ai/ha; for Kochia plant response rating: 31 g ai/ha, scale 0 to 100 (0 no effect, 100 complete control); for Plant response rating, Kochia: scale 0 to 100, 0 no effect, 100 complete control
Procedure, shortened: (§2)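 The formulated test chemicals were applied over the foliage of young potted plants (2 to 18 cm tall), which were then held under greenhouse conditions. Between days 13 and 15 each species was rated by eye versus controls, from 0 for no effect up to 100 for complete control.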

wild oat (Avena fatua) = assay: Test D postemergence plant response; settings: for Plant response rating (scale 0 to 100), Oat, Wild: 16 g ai/ha; for Plant response rating, Oat, Wild: 125 g ai/ha
Procedure, shortened: as §2

[5] = test system: Italian ryegrass (Lolium multiflorum); assay: Test F pre-/postemergence plant response; settings: scale 0 to 100
Text: (§3) Seeds of plant species selected from corn (Zea mays), soybean (Glycine max), velvetleaf (Abutilon theophrasti), lambsquarters (Chenopodium album), wild poinsettia (Euphorbia heterophylla), palmer pigweed (Amaranthus palmeri), waterhemp (common waterhemp, Amaranthus rudis), surinam grass (Brachiaria decumbens), large (Lg) crabgrass (Digitaria sanguinalis), Brazilian crabgrass (Digitaria horizontalis), fall panicum (Panicum dichotomiflorum), giant foxtail (Setaria faberii), green foxtail (Setaria viridis), goosegrass (Eleusine indica), johnsongrass (Sorghum halepense), ragweed (common ragweed, Ambrosia elatior), barnyardgrass (Echinochloa crus-galli), sandbur (southern sandbur, Cenchrus echinatus), arrowleaf sida (Sida rhombifolia), Italian ryegrass (Lolium multiflorum), dayflower (Virginia (VA) dayflower, Commelina virginica), field bindweed (Convolvulus arvensis), cocklebur (common cocklebur, Xanthium strumarium), momingglory (Ipomoea coccinea), nightshade (eastern black nightshade, Solanum ptycanthum), kochia (Kochia scoparia), yellow nutsedge (Cyperus esculentus), and hairy beggarticks (Bidens pilosa), were planted into a silt loam soil and treated preemergence with test chemicals formulated in a non-phytotoxic solvent mixture which included a surfactant.
(§4) At the same time, plants from these crop and weed species and also waterhemp_RES1, (ALS & Triazine resistant common waterhemp, Amaranthus rudis), and waterhemp_RES2, (ALS & HPPD resistant common waterhemp, Amaranthus rudis) were treated with postemergence applications of test chemicals formulated in the same manner. Plants ranged in height from 2 to 18 cm for postemergence treatments (1- to 4-leaf stage).
(§5) Treated plants and controls were maintained in a greenhouse for 14 to 21 days, after which time all species were compared to controls and visually evaluated. Plant response ratings, summarized in Table F, are based on a scale of 0 to 100 where 0 is no effect and 100 is complete control. A dash (-) response means no test result.

kochia (Kochia scoparia) [6] = assay: Test F pre-/postemergence plant response; settings: scale 0 to 100
Text: as §3, §4, §5

[7] = test system: palmer pigweed (Amaranthus palmeri); assay: Test F pre-/postemergence plant response; settings: scale 0 to 100
Text: as §3, §4, §5

[8] = test system: waterhemp_RES1 (ALS & Triazine resistant common waterhemp, Amaranthus rudis); assay: Test F postemergence plant response; settings: scale 0 to 100
Protocol: as §4, §5

[9] = test system: waterhemp_RES2 (ALS & HPPD resistant common waterhemp, Amaranthus rudis); assay: Test F postemergence plant response; settings: scale 0 to 100
Protocol: as §4, §5

[10] = 31 g ai/ha, Preemergence, 0 to 100 scale where 0 is no effect and 100 is complete control
[11] = 125 g ai/ha, postemergence, 0 to 100 scale, 0 no effect, 100 complete control
[12] = Postemergence, 31 g ai/ha, 0 to 100 scale (0 no effect, 100 complete control)
[13] = Preemergence, 125 g ai/ha, 0 to 100 scale (0 no effect, 100 complete control)
[14] = 31 g ai/ha, scale 0 to 100 (0 no effect, 100 complete control)
[15] = 62 g ai/ha, scale 0 to 100, 0 no effect, 100 complete control
[16] = scale 0 to 100, 0 no effect, 100 complete control

| Structure (SMILES) | Plant response rating, Ryegrass, Italian [1, 10] | Plant response rating, Ryegrass, Italian [1, 11] | Plant response rating, Ryegrass, Italian [1, 12] | Ryegrass, Italian plant response rating [1, 13] | Plant response rating, Kochia (kochia (Kochia scoparia) [2]; [10]) | Plant response rating, Kochia (kochia (Kochia scoparia) [2]; [11]) | Plant response rating, Kochia (kochia (Kochia scoparia) [2]; [12]) | Kochia plant response rating (kochia (Kochia scoparia) [2]; [13]) | Plant response rating, Ragweed [3, 10] | Plant response rating, Ragweed [3, 11] | Plant response rating, Ragweed [3, 12] | Ragweed plant response rating [3, 13] | Plant response rating (scale 0 to 100), Kochia (kochia (Kochia scoparia) [4]) | Kochia plant response rating (kochia (Kochia scoparia) [4]) | Plant response rating, Kochia (kochia (Kochia scoparia) [4]; 62 g ai/ha) | Plant response rating, Kochia (kochia (Kochia scoparia) [4]; 125 g ai/ha) | Plant response rating (scale 0 to 100), Oat, Wild (wild oat (Avena fatua)) | Oat, Wild plant response rating (wild oat (Avena fatua); [14]) | Oat, Wild plant response rating (wild oat (Avena fatua); [15]) | Plant response rating, Oat, Wild (wild oat (Avena fatua); [16]) | also measured |
| --- | --- | --- | --- | --- | --- | --- | --- | --- | --- | --- | --- | --- | --- | --- | --- | --- | --- | --- | --- | --- | --- |
| FC(F)c1cc(-c2ccccc2Oc2ncc(Br)cn2)on1 [Compound 212] | 0 | 20 | 0 | 40 | 40 | 100 | 90 | 90 | 0 | 60 | 20 | 40 | 90 | 100 | 100 | 100 | 0 | 0 | 5 | 10 | Plant response rating, Ryegrass, Italian ([5]; 16 g ai/ha Postemergence): 0; Plant response rating, Ryegrass, Italian ([5]; 31 g ai/ha Postemergence): 0; Plant response rating, Ryegrass, Italian ([5]; 62 g ai/ha Postemergence): 0; Plant response rating, Ryegrass, Italian ([5]; 125 g ai/ha Postemergence): 0; Plant response rating, Kochia (kochia (Kochia scoparia) [6]; 16 g ai/ha Postemergence): 50; Plant response rating, Kochia (kochia (Kochia scoparia) [6]; 31 g ai/ha Postemergence): 90; Plant response rating, Kochia (kochia (Kochia scoparia) [6]; 62 g ai/ha Postemergence): 100; Plant response rating, Kochia (kochia (Kochia scoparia) [6]; 125 g ai/ha Postemergence): 100; Plant response rating, Pigweed, Palmer ([7]; 16 g ai/ha Postemergence): 30; Plant response rating, Pigweed, Palmer ([7]; 31 g ai/ha Postemergence): 75; Plant response rating, Pigweed, Palmer ([7]; 62 g ai/ha Postemergence): 100; Plant response rating, Pigweed, Palmer ([7]; 125 g ai/ha Postemergence): 98; Plant response rating, Waterhemp_RES1 ([8]; 16 g ai/ha Postemergence): 70; Plant response rating, Waterhemp_RES1 ([8]; 31 g ai/ha Postemergence): 80; Plant response rating, Waterhemp_RES1 ([8]; 62 g ai/ha Postemergence): 95; Plant response rating, Waterhemp_RES1 ([8]; 125 g ai/ha Postemergence): 98; Plant response rating, Waterhemp_RES2 ([9]; 16 g ai/ha Postemergence): 70; Plant response rating, Waterhemp_RES2 ([9]; 31 g ai/ha Postemergence): 95; Plant response rating, Waterhemp_RES2 ([9]; 62 g ai/ha Postemergence): 98; Plant response rating, Waterhemp_RES2 ([9]; 125 g ai/ha Postemergence): 100 |
| Fc1ccc(Oc2ncc(Cl)cn2)c(-c2cc(C(F)(Cl)Cl)on2)c1 [Compound 221] | 20 | 40 | 0 | 40 | 50 | 100 | 80 | 70 | 0 | 50 | 10 | 0 | 98 | 100 | 100 | 100 | 5 | 10 | 10 | 35 | Plant response rating, Ryegrass, Italian ([5]; 16 g ai/ha Postemergence): 0; Plant response rating, Ryegrass, Italian ([5]; 31 g ai/ha Postemergence): 0; Plant response rating, Ryegrass, Italian ([5]; 62 g ai/ha Postemergence): 0; Plant response rating, Ryegrass, Italian ([5]; 125 g ai/ha Postemergence): 5; Plant response rating, Kochia (kochia (Kochia scoparia) [6]; 16 g ai/ha Postemergence): 95; Plant response rating, Kochia (kochia (Kochia scoparia) [6]; 31 g ai/ha Postemergence): 98; Plant response rating, Kochia (kochia (Kochia scoparia) [6]; 62 g ai/ha Postemergence): 100; Plant response rating, Kochia (kochia (Kochia scoparia) [6]; 125 g ai/ha Postemergence): 100; Plant response rating, Pigweed, Palmer ([7]; 16 g ai/ha Postemergence): 85; Plant response rating, Pigweed, Palmer ([7]; 31 g ai/ha Postemergence): 90; Plant response rating, Pigweed, Palmer ([7]; 62 g ai/ha Postemergence): 100; Plant response rating, Pigweed, Palmer ([7]; 125 g ai/ha Postemergence): 100; Plant response rating, Waterhemp_RES1 ([8]; 16 g ai/ha Postemergence): 85; Plant response rating, Waterhemp_RES1 ([8]; 31 g ai/ha Postemergence): 95; Plant response rating, Waterhemp_RES1 ([8]; 62 g ai/ha Postemergence): 100; Plant response rating, Waterhemp_RES1 ([8]; 125 g ai/ha Postemergence): 98; Plant response rating, Waterhemp_RES2 ([9]; 16 g ai/ha Postemergence): 90; Plant response rating, Waterhemp_RES2 ([9]; 31 g ai/ha Postemergence): 98; Plant response rating, Waterhemp_RES2 ([9]; 62 g ai/ha Postemergence): 95; Plant response rating, Waterhemp_RES2 ([9]; 125 g ai/ha Postemergence): 100 |
